Counter-ions that a name gives are not always drawn. Like-named read-outs stand apart in the source and are kept apart here.
Experiments:
[1] = biological target: S. aureus CrtM (dehydrosqualene synthase) (Staphylococcus aureus, UniProt A9JQL9); assay: CrtM enzyme inhibition assay; settings: for as active as 1 in CrtM inhibition: fold more active
[2] = system: staphyloxanthin (STX) biosynthesis in S. aureus; assay: Staphyloxanthin biosynthesis inhibition assay; type: cell-based, Staphylococcus aureus
Method: The question next arises: how potent are these compounds in inhibiting STX biosynthesis in S. aureus? We thus treated S. aureus bacteria with serially diluted compounds at 37° C. for 3 days, after which the STX pigment was extracted with methanol. Optical densities were measured at 450 nm and IC50 values for inhibition of pigment formation for each compound were calculated using a standard dose-response curve. The rank ordered IC50 values of the 38 compounds investigated are shown in Table 7 and dose-response curves of representative compounds are shown in FIG. 2.
The S. aureus strain used was the WT clinical isolate (Pig1) (4). S. aureus was cultured in THB (1 mL) in the presence of inhibitor compounds for 72 h, in duplicate. Cells were then centrifuged and washed twice with PBS. STX was extracted with MeOH and the O.D. was determined at 450 nm using a Perkin Elmer MBA 2000 (Norwalk, Conn.) spectrophotometer.

[3] = Staphylococcus aureus, read-out: IC50(STX)
[4] = Table 7, S. aureus, 37° C., 3 days, read-out: Staphyloxanthin IC50
[5] = read-out: CrtM enzyme experimental activity IC50, Table 5
[6] = Staphylococcus aureus, 72 h, read-out: Staphyloxanthin IC50
[7] = read-out: CrtM IC50 values, Table 4
[8] = Staphylococcus aureus, read-out: IC50 (STX)

S. aureus CrtM (dehydrosqualene synthase), sequence (A9JQL9 whole entry): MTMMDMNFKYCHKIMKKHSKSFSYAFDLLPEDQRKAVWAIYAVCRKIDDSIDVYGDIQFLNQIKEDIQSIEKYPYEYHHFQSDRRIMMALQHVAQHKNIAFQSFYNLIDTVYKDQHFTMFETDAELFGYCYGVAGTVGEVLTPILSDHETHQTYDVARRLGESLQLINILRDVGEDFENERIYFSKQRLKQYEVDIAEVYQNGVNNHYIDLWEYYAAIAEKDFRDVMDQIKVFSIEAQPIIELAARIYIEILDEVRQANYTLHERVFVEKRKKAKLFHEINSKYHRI

CN(CCCc1cccc(Oc2ccccc2)c1)C(=O)CP(=O)(O)O [compound 848]
IC50 [1]: 193 µM
IC50 [2, 3]: 8.6 µM

1-Phosphono-4-[3-(4-fluorophenoxy)-6-methoxy-phenyl]butylsulfonic acid tripotassium salt [Compound 36]
IC50 [2, 4]: 13.8 µM

O=P(O)(O)C(CCCc1cccc(Cc2ccccc2)c1)S(=O)(=O)O (stereo not shown) [Compound 17, 1-Phosphono-4-(3-benzylphenyl)butylsulfonic acid tripotassium salt]
IC50 [1, 5]: 20.4 µM
IC50 [2, 6]: 0.17 µM

Cc1ccc(-c2ccc(CCCC(P(=O)(O)O)S(=O)(=O)O)cc2)cc1 (stereo not shown) [Compound 11, 1-Phosphono-4-[4-(4-methylphenyl)phenyl]butylsulfonic acid tripotassium salt]
IC50 [1, 5]: 24.5 µM
IC50 [2, 6]: 0.18 µM

O=P([O-])([O-])C(CCCc1ccc(Oc2ccccc2)cc1)S(=O)(=O)[O-].[K+].[K+].[K+] (stereo not shown) [Compound 18, 1-Phosphono-4-(4-phenoxyphenyl)butylsulfonic acid tripotassium salt]
IC50 [2, 6]: 0.19 µM

1-Phosphono-4-[3-[4-(furan-2-yl)phenoxy]phenyl]butylsulfonic acid tripotassium salt [Compound 29]
CrtM enzyme experimental activity pIC50 ([1]; Table 5): 4.58
IC50 [1, 7]: 26.3 µM
IC50 [1, 5]: 26.3 µM
IC50 [2, 4]: 1.1 µM

1-Phosphono-4-[3-(2-trifluoromethylphenoxy)phenyl]butylsulfonic acid tripotassium salt [Compound 23]
CrtM enzyme experimental activity pIC50 ([1]; Table 5): 4.27
IC50 [1, 7]: 53.7 µM
IC50 [1, 5]: 53.7 µM
IC50 [2, 4]: 0.46 µM

1-Phosphono-4-[3-(2-fluorophenoxy)phenyl]butylsulfonic acid tripotassium salt [Compound 21]
CrtM enzyme experimental activity pIC50 ([1]; Table 5): 5.16
IC50 [1, 7]: 6.9 µM
IC50 [1, 5]: 6.9 µM
IC50 [2, 4]: 0.51 µM

1-Phosphono-4-[3-(3-trifluoromethylphenoxy)phenyl]butylsulfonic acid tripotassium salt [Compound 22]
CrtM enzyme experimental activity pIC50 ([1]; Table 5): 5.01
IC50 [1, 7]: 9.8 µM
IC50 [1, 5]: 9.8 µM
IC50 [2, 4]: 0.074 µM

CCCCc1ccc(-c2ccc(CCCC(P(=O)([O-])[O-])S(=O)(=O)[O-])cc2)cc1.[K+].[K+].[K+] (stereo not shown) [Compound 12, 1-Phosphono-4-[4-(4-butylphenyl)phenyl]butylsulfonic acid tripotassium salt]
IC50 [2, 6]: 0.16 µM

O=C(CP(=O)(O)O)N(O)CCCc1cccc(Oc2ccccc2)c1 [compound 808]
IC50 [1]: 67.5 µM
IC50 [2, 3]: 0.108 µM
IC50 ([2]; Staphylococcus aureus, read-out: IC50(STX), cell activity): 0.11 µM

O=P(O)(O)C(CCCc1cccc(Oc2ccc(Cc3ccccc3)cc2)c1)S(=O)(=O)O (stereo not shown) [Compound 26, 1-Phosphono-4-[3-(4-benzylphenoxy)phenyl]butylsulfonic acid tripotassium salt]
IC50 ([1]; read-out: IC50 (CrtM), Table 1): 13.5 µM
IC50 [2, 6]: 0.049 µM
IC50 [2, 8]: 0.049 µM

1-Phosphono-4-[3-(4-fluorophenoxy)-6-fluoro-phenyl]butylsulfonic acid tripotassium salt [Compound 35]
CrtM enzyme experimental activity pIC50 ([1]; Table 5): 5.68
IC50 [1, 7]: 2.1 µM
IC50 [1, 5]: 2.1 µM
IC50 [2, 4]: 0.059 µM

O=C(CP(=O)(O)O)NCCCc1cccc(Oc2ccc(Cl)cc2)c1 [compound 926]
IC50 [1]: 15.3 µM
IC50 [2, 3]: 0.028 µM

O=C(CS(=O)(=O)O)NCCCc1cccc(Oc2ccccc2)c1 [compound 884]
IC50 [1]: 171 µM
IC50 [2, 3]: 15 µM

O=P(O)(O)CS(=O)(=O)NCCCc1cccc(Oc2ccccc2)c1 [compound 841]
IC50 [1]: 1640 µM
IC50 [2, 3]: > 500 µM

1-Phosphono-4-[3-(3,5-difluorophenoxy)phenyl]butylsulfonic acid tripotassium salt [Compound 33]
CrtM enzyme experimental activity pIC50 ([1]; Table 5): 5.34
IC50 [1, 7]: 4.6 µM
IC50 [1, 5]: 4.6 µM
IC50 [2, 4]: 0.015 µM

CC(C)(C)c1ccc(Oc2cccc(CCCC(P(=O)(O)O)S(=O)(=O)O)c2)cc1 (stereo not shown) [Compound 25, 1-Phosphono-4-[3-(4-tert-butylphenoxy)phenyl]butylsulfonic acid tripotassium salt]
IC50 ([1]; read-out: IC50 (CrtM), Table 1): 10.5 µM
IC50 [2, 6]: 0.021 µM
IC50 [2, 8]: 0.021 µM

O=P(O)(O)C(CCCc1cccc(Oc2ccc(C(F)(F)F)cc2)c1)S(=O)(=O)O (stereo not shown) [Compound 7, 1-Phosphono-4-[3-(4-trifluoromethylphenoxy)phenyl]butylsulfonic acid tripotassium salt]
IC50 [1, 7]: 7.2 µM
IC50 [2, 6]: 0.04 µM

O=P(O)(O)C(CCCc1ccc(-c2ccc(F)cc2F)cc1)S(=O)(=O)O (stereo not shown) [Compound 10, 1-Phosphono-4-[4-(2,4-difluorophenyl)phenyl]butylsulfonic acid tripotassium salt]
IC50 [1, 5]: 9.1 µM
IC50 [2, 6]: 0.18 µM

O=C(CP(=O)(O)O)NCCCc1ccc(-c2ccccc2)cc1 [compound 846]
IC50 [1]: 165 µM

CCCOc1cccc(-c2ccc(CCCC(P(=O)(O)O)S(=O)(=O)O)cc2)c1 (stereo not shown) [Compound 13, 1-Phosphono-4-[4-(3-propoxyphenyl)phenyl]butylsulfonic acid tripotassium salt]
IC50 [1, 5]: 123 µM
IC50 [2, 6]: 0.49 µM

O=C(CCCCc1ccc(Oc2ccccc2)cc1)CP(=O)(O)O [compound 839]
IC50 [1]: 1520 µM
IC50 [2, 3]: 28 µM

O=C(NO)C(CCCc1cccc(Oc2ccccc2)c1)P(=O)(O)O (stereo not shown) [compound 809]
IC50 [1]: 859 µM
IC50 [2, 3]: 4.23 µM

O=P(O)(O)C(CCCc1cccc(Nc2ccccc2)c1)S(=O)(=O)O (stereo not shown) [Compound 16, 1-Phosphono-4-(3-phenylaminophenyl)butylsulfonic acid tripotassium salt]
IC50 ([1]; read-out: IC50 against CrtM): 43.7 µM
IC50 [2, 6]: 0.5 µM

O=P(O)(O)CP(=O)(O)CCCCc1cccc(Oc2ccccc2)c1 [compound 885]
IC50 [1]: 45 µM
IC50 [2, 3]: 0.44 µM

CCCc1ccc(Oc2cccc(CCCC(P(=O)([O-])[O-])S(=O)(=O)[O-])c2)cc1.[K+].[K+].[K+] (stereo not shown) [Compound 6, 1-Phosphono-4-[3-(4-propylphenoxy)phenyl]butylsulfonic acid tripotassium salt]
Ki [1]: ~0.005 µM
as active as 1 in CrtM inhibition ([1]; versus 1): ~4 ×
IC50 ([1]; read-out: IC50 (CrtM), Table 1): 2.2 µM
IC50 [2, 6]: 0.093 µM
IC50 [2, 8]: 0.1 µM
IC50 ([2]; Staphylococcus aureus, read-out: IC50 for STX biosynthesis): 0.093 µM

1-Phosphono-4-[3-(3,4-difluorophenoxy)phenyl]butylsulfonic acid tripotassium salt [Compound 30]
CrtM enzyme experimental activity pIC50 ([1]; Table 5): 5.76
IC50 [1, 7]: 1.7 µM
IC50 [1, 5]: 1.7 µM
IC50 [2, 4]: 0.11 µM

O=C(CP(=O)(O)O)NCCCc1cccc(Oc2ccccc2)c1 [compound 830]
IC50 [1]: 8.9 µM
IC50 [2, 3]: 0.008 µM

CC(C)(C(=O)NCCCc1cccc(Oc2ccccc2)c1)P(=O)(O)O [compound 847]
IC50 [1]: 204 µM
IC50 [2, 3]: > 500 µM

1-Phosphono-4-[3-(3-fluorophenoxy)phenyl]butylsulfonic acid tripotassium salt [Compound 20]
CrtM enzyme experimental activity pIC50 ([1]; Table 5): 5.66
IC50 [1, 7]: 2.2 µM
IC50 [1, 5]: 2.2 µM
IC50 [2, 4]: 0.22 µM

O=P([O-])([O-])C(CCCc1cccc(Oc2ccccc2Cc2ccccc2)c1)S(=O)(=O)[O-].[K+].[K+].[K+] (stereo not shown) [Compound 8, 1-Phosphono-4-[3-(2-benzylphenoxy)phenyl]butylsulfonic acid tripotassium salt]
CrtM enzyme experimental activity pIC50 ([1]; Table 5): 4.43
less active than 1 in CrtM inhibition ([1]; fold, versus 1): ~5 ×
IC50 [2, 6]: 0.019 µM

1-Phosphono-4-[3-(3,4-dichlorophenoxy)phenyl]butylsulfonic acid tripotassium salt [Compound 31]
CrtM enzyme experimental activity pIC50 ([1]; Table 5): 5.65
IC50 [1, 7]: 2.2 µM
IC50 [1, 5]: 2.2 µM
IC50 [2, 4]: 0.011 µM

O=P([O-])([O-])C(CCCc1cccc(Oc2ccc(F)cc2)c1)S(=O)(=O)[O-].[K+].[K+].[K+] (stereo not shown) [Compound 5, 1-Phosphono-4-[3-(4-fluorophenoxy)phenyl]butylsulfonic acid tripotassium salt]
IC50 [1]: 2.34 µM
Ki [1]: ~0.005 µM
as active as 1 in CrtM inhibition ([1]; versus 1): ~4 ×
IC50 ([1]; read-out: IC50 against CrtM): 2.3 µM
IC50 [2, 6]: 0.052 µM

1-Phosphono-4-[3-(4-hydroxyphenoxy)phenyl]butylsulfonic acid tripotassium salt [Compound 27]
IC50 [2, 4]: 6.8 µM

O=C(O)CC(=O)NCCCc1cccc(Oc2ccccc2)c1 [compound 888]
IC50 [1]: > 1500 µM

O=P(O)(O)[C@@H](CCCc1cccc(Oc2ccccc2)c1)S(=O)(=O)O [Compound (R)-1, (1R)-1-Phosphono-4-(3-phenoxyphenyl)butylsulfonic acid tripotassium salt]
IC50 [2, 6]: 0.31 µM

1-Phosphono-4-[3-(4-phenoxyphenoxy)phenyl]butylsulfonic acid tripotassium salt [Compound 28]
IC50 [2, 4]: 0.1 µM

O=P([O-])([O-])C(CCCc1ccc(-c2ccccc2)cc1)S(=O)(=O)[O-].[K+].[K+].[K+] (stereo not shown) [Compound 9, 1-Phosphono-4-(4-biphenyl)butylsulfonic acid tripotassium salt]
IC50 [2, 6]: 0.35 µM

CP(=O)([O-])C(CCCc1ccc(-c2ccccc2)cc1)P(=O)([O-])[O-].[K+].[K+].[K+] (stereo not shown) [Compound 4, dipotassium salt]
IC50 [2, 6]: 1.4 µM

CCn1c2ccccc2c2cc(CCCC(P(=O)(O)O)S(=O)(=O)O)ccc21 (stereo not shown) [Compound 19, 1-Phosphono-4-(9-ethylcarbazole-3-yl)butylsulfonic acid tripotassium salt]
IC50 [2, 6]: 263 µM

Reference: US20120022024A1, “ANTI-BACTERIAL COMPOSITIONS AND METHODS INCLUDING TARGETING VIRULENCE FACTORS OF STAPHYLOCOCCUS AUREUS” (priority 2009, published 2012)
